From a compilation of properties of binary mixtures (doi:10.1016/j.molliq.2020.112718)

Assay: xn = mol fraction of the nth substance listed
Details: 100 kPa

CCOCC[n+]1ccn(C)c1.C[C@@H](O)[C@H](N)C(=O)[O-] + O
viscosity (298.15 K, x1 = 0.3157): 834 mPa·s
viscosity (298.15 K, x1 = 0.3647): 889 mPa·s
viscosity (298.15 K, x1 = 0.4246): 938 mPa·s
viscosity (298.15 K, x1 = 0.508): 990 mPa·s
viscosity (298.15 K, x1 = 1): 1133 mPa·s
viscosity (303.15 K, x1 = 0.3157): 538 mPa·s
viscosity (303.15 K, x1 = 0.3647): 571 mPa·s
viscosity (303.15 K, x1 = 0.4246): 604 mPa·s
viscosity (303.15 K, x1 = 0.508): 638 mPa·s
viscosity (303.15 K, x1 = 0.6189): 671 mPa·s
viscosity (303.15 K, x1 = 1): 730 mPa·s
viscosity (308.15 K, x1 = 0.3157): 344 mPa·s
viscosity (308.15 K, x1 = 0.3647): 360 mPa·s
viscosity (308.15 K, x1 = 0.4246): 376 mPa·s
viscosity (308.15 K, x1 = 0.508): 393 mPa·s
viscosity (308.15 K, x1 = 0.6189): 410 mPa·s
viscosity (308.15 K, x1 = 1): 439 mPa·s
viscosity (313.15 K, x1 = 0.3157): 231 mPa·s
viscosity (313.15 K, x1 = 0.4246): 259 mPa·s
viscosity (313.15 K, x1 = 0.508): 273 mPa·s
viscosity (313.15 K, x1 = 0.6189): 287 mPa·s
viscosity (313.15 K, x1 = 1): 313 mPa·s
viscosity (318.15 K, x1 = 0.3157): 167 mPa·s
viscosity (318.15 K, x1 = 0.3647): 174.5 mPa·s
viscosity (318.15 K, x1 = 0.4246): 180.6 mPa·s
viscosity (318.15 K, x1 = 0.508): 187.2 mPa·s
viscosity (318.15 K, x1 = 0.6189): 195 mPa·s
viscosity (318.15 K, x1 = 1): 207 mPa·s
viscosity (323.15 K, x1 = 0.4246): 130.8 mPa·s
viscosity (323.15 K, x1 = 0.508): 136.2 mPa·s
viscosity (323.15 K, x1 = 0.6189): 143.5 mPa·s
viscosity (323.15 K, x1 = 1): 153.8 mPa·s
viscosity (328.15 K, x1 = 0.3157): 97.8 mPa·s
viscosity (328.15 K, x1 = 0.4246): 102.6 mPa·s
viscosity (328.15 K, x1 = 0.6189): 109.6 mPa·s

COCC[n+]1ccn(C)c1.C[C@@H](O)[C@H](N)C(=O)[O-] + O
viscosity (298.15 K, x1 = 0.3313): 740 mPa·s
viscosity (298.15 K, x1 = 0.3795): 767 mPa·s
viscosity (298.15 K, x1 = 0.4475): 800 mPa·s
viscosity (298.15 K, x1 = 0.5347): 829 mPa·s
viscosity (298.15 K, x1 = 0.657): 852 mPa·s
viscosity (298.15 K, x1 = 1): 900 mPa·s
viscosity (303.15 K, x1 = 0.3313): 473 mPa·s
viscosity (303.15 K, x1 = 0.3795): 500 mPa·s
viscosity (303.15 K, x1 = 0.4475): 529 mPa·s
viscosity (303.15 K, x1 = 1): 625 mPa·s
viscosity (308.15 K, x1 = 0.3795): 306 mPa·s
viscosity (308.15 K, x1 = 0.4475): 320 mPa·s
viscosity (308.15 K, x1 = 0.5347): 332 mPa·s
viscosity (308.15 K, x1 = 0.657): 344 mPa·s
viscosity (308.15 K, x1 = 1): 362 mPa·s
viscosity (313.15 K, x1 = 0.3313): 199.2 mPa·s
viscosity (313.15 K, x1 = 0.3795): 210 mPa·s
viscosity (313.15 K, x1 = 0.4475): 222 mPa·s
viscosity (313.15 K, x1 = 0.5347): 233 mPa·s
viscosity (313.15 K, x1 = 0.657): 242 mPa·s
viscosity (313.15 K, x1 = 1): 260 mPa·s
viscosity (318.15 K, x1 = 0.3313): 139.9 mPa·s
viscosity (318.15 K, x1 = 0.3795): 148.1 mPa·s
viscosity (318.15 K, x1 = 0.4475): 155.8 mPa·s
viscosity (318.15 K, x1 = 0.657): 171.8 mPa·s
viscosity (318.15 K, x1 = 1): 184.4 mPa·s
viscosity (323.15 K, x1 = 0.3313): 101.7 mPa·s
viscosity (323.15 K, x1 = 0.3795): 108.5 mPa·s
viscosity (323.15 K, x1 = 1): 136.8 mPa·s
viscosity (328.15 K, x1 = 0.3313): 82.2 mPa·s
viscosity (328.15 K, x1 = 0.3795): 84.9 mPa·s
viscosity (328.15 K, x1 = 0.4475): 88.2 mPa·s
viscosity (328.15 K, x1 = 0.5347): 91.3 mPa·s
viscosity (328.15 K, x1 = 0.657): 94.8 mPa·s
viscosity (328.15 K, x1 = 1): 99.6 mPa·s
